According to patent US7674801B2 (AstraZeneca AB, priority 2006, dated 2010):
Converted amounts (≈) assume the structure as drawn.

These compounds were tested on Streptococcus pneumoniae (assay: Bacterial susceptibility testing in liquid media (MIC)). Details: 37° C., 24 hrs.
Format: cell-based
Experimental: Compounds were tested for antimicrobial activity by susceptibility testing in liquid media. Compounds were dissolved in dimethylsulfoxide and tested in 10 doubling dilutions in the susceptibility assays. The organisms used in the assay were grown overnight on suitable agar media and then suspended in a liquid medium appropriate for the growth of the organism. The suspension was a 0.5 McFarland and a further 1 in 10 dilution was made into the same liquid medium to prepare the final organism suspension in 100 μL. Plates were incubated under appropriate conditions at 37° C. for 24 hrs prior to reading. The Minimum Inhibitory Concentration was determined as the lowest drug concentration able to reduce growth by 80% or more.
`CCCCNC(=O)c1nc(-c2ccc(NC(=O)NCC)nc2)sc1C(=O)O` [Example 26, 4-[(Butylamino)carbonyl]-2-(6-{[(ethylamino)carbonyl]amino}pyridin-3-yl)-1,3-thiazole-5-carboxylic acid] was tested, and the “MIC (lowest concentration reducing growth by 80% or more)” value was 2.0 µg/mL (≈ 5.11 µM).

Each compound was assayed against S. aureus (SAU) GyrB ATPase (Staphylococcus aureus, UniProt P0A0K8) (assay: S. aureus GyrB ATPase inhibition, ammonium molybdate/malachite green phosphate detection assay). Details: compound concentration 12.5 μM; 12.5 µM.
Chain of S. aureus (SAU) GyrB ATPase (P0A0K8 whole entry): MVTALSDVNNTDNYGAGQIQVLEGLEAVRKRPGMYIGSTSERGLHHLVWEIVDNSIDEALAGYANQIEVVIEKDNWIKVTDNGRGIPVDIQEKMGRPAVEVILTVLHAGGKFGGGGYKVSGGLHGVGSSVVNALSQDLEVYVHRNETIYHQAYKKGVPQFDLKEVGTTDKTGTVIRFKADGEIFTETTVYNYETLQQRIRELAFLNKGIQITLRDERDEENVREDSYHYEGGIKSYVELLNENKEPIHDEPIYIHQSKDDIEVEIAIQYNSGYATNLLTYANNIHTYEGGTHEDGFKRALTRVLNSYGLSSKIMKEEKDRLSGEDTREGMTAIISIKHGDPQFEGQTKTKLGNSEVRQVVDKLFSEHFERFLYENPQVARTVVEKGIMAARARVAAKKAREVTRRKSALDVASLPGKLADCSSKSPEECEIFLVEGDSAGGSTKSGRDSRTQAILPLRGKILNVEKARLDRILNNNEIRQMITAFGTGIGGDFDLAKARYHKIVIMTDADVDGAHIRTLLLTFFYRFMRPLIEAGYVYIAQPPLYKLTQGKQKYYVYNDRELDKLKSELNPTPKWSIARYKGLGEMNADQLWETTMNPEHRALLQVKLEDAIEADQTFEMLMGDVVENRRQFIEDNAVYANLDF
Chain of S. aureus (SAU) GyrB ATPase (P0AES4 whole entry, further chain): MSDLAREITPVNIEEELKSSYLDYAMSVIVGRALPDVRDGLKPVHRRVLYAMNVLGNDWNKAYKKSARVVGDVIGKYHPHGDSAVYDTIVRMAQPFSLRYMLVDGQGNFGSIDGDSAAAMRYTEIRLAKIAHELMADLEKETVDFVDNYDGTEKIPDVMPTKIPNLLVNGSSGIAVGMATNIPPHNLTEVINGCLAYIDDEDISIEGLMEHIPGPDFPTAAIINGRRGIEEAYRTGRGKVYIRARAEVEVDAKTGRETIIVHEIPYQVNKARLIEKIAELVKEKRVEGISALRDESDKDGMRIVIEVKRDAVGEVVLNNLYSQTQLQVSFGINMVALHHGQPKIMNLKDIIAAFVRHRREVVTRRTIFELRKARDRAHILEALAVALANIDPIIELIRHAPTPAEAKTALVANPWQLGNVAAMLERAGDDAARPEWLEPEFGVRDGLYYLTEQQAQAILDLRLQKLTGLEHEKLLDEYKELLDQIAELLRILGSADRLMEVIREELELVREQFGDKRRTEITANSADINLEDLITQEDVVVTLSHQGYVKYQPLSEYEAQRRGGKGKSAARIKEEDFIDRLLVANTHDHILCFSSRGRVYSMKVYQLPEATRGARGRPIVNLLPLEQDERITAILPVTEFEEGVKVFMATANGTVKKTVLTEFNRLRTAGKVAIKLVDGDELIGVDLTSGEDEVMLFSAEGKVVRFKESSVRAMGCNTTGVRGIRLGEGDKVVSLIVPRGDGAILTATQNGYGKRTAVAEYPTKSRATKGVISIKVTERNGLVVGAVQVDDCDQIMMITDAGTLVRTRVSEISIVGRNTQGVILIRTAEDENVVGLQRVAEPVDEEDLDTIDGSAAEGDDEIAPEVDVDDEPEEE
Format: biochemical
Method in brief: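 E. coli GyrA and S. aureus GyrB (1.25 nM each) with 500 μM ATP and 5 μg/ml sheared salmon sperm DNA in 50 mM Hepes pH 7.5, 8.0 mM MgCl2. Released phosphate detected with ammonium molybdate/malachite green at 650 nm; 2% DMSO as 0% and 2 μM novobiocin as 100% inhibition; IC50 from 10 concentrations.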
For `CCNC(=O)Nc1ccc(-c2nc(-c3ncnn3C)c(C(=O)O)s2)cn1` [Example 147, 2-(6-{[(ethylamino)carbonyl]amino}pyridin-3-yl)-4-(1-methyl-1H-1,2,4-triazol-5-yl)-1,3-thiazole-5-carboxylic acid], the “S. aureus (SAU) GyrB ATPase % Inhibition” value was 94.65%.

Same assay, conditions: read-out: S. aureus (SAU) GyrB ATPase % Inhibition, compound concentration 12.5 μM
`CCCCNC(=O)c1nc(-c2ccc(NC(=O)NCC)nc2)sc1C(=O)O` [Example 26, 4-[(Butylamino)carbonyl]-2-(6-{[(ethylamino)carbonyl]amino}pyridin-3-yl)-1,3-thiazole-5-carboxylic acid] gave an inhibition at 12.5 µM of 70.5%. With `CCNC(=O)Nc1ccc(-c2cccc(CC(=O)O)c2)cn1` [Example 146, [3-(6-{[(ethylamino)carbonyl]amino}pyridin-3-yl)phenyl]acetic acid] the inhibition at 12.5 µM was 64.3%. Work on `CCNC(=O)Nc1ccc(-c2ccc3nc(C)c(C(=O)O)n3c2)cn1` [Example 148, 6-(6-{[(ethylamino)carbonyl]amino}pyridin-3-yl)-2-methylimidazo[1,2-a]pyridine-3-carboxylic acid] yielded an inhibition at 12.5 µM of 94.2%. For `CCNC(=O)Nc1ccc(-c2nc(C(=O)N(C)C)c(C(=O)O)s2)cn1` [Example 149, 4-[(dimethylamino)carbonyl]-2-(6-{[(ethylamino)carbonyl]amino}pyridin-3-yl)-1,3-thiazole-5-carboxylic acid], the inhibition at 12.5 µM was 97.5%. Work on `CCCCNC(=O)c1nc(-c2cnc(NC(=O)NCC)cc2-c2nc(CC)cs2)sc1C(=O)O` [Example 150, 4-[(butylamino)carbonyl]-2-[6-{[(ethylamino)carbonyl]amino}-4-(4-ethyl-1,3-thiazol-2-yl)pyridin-3-yl]-1,3-thiazole-5-carboxylic acid] yielded an inhibition at 12.5 µM of 100%. For `CCNC(=O)Nc1cccc(-c2cccc(C(N)=O)c2)n1` [Example 151, 3-(6-{[(ethylamino)carbonyl]amino}pyridin-2-yl)benzamide], the inhibition at 12.5 µM was 97.7%. Work on `CCNC(=O)Nc1ccc(-c2nc(C(N)=O)c(C(N)=O)s2)cn1` [Example 152, 2-(6-{[(ethylamino)carbonyl]amino}pyridin-3-yl)-1,3-thiazole-4,5-dicarboxamide] yielded an inhibition at 12.5 µM of 69.4%. `CCNC(=O)Nc1ccc(-c2nc(C(C)=O)c(C(=O)N(C)C)s2)cn1` [Example 153, 4-acetyl-2-(6-{[(ethylamino)carbonyl]amino}pyridin-3-yl)-N,N-dimethyl-1,3-thiazole-5-carboxamide] was tested, and the inhibition at 12.5 µM was 71.4%. `CCNC(=O)Nc1ccc(-c2nc(C(C)=O)c(C(N)=O)s2)cn1` [Example 154, 4-acetyl-2-(6-{[(ethylamino)carbonyl]amino}pyridin-3-yl)-1,3-thiazole-5-carboxamide] gave an inhibition at 12.5 µM of 99.8%. `CCNC(=O)Nc1ccc(-c2ccc3nc(C)c(C(N)=O)n3c2)cn1` [Example 155, 6-(6-{[(ethylamino)carbonyl]amino}pyridin-3-yl)-2-methylimidazo[1,2-a]pyridine-3-carboxamide] was tested, and the inhibition at 12.5 µM was 82.3%. Work on `CCNC(=O)Nc1cccc(-c2cccc(C(=O)N(C)C)c2)n1` [Example 156, 3-(6-{[(ethylamino)carbonyl]amino}pyridin-2-yl)-N,N-dimethylbenzamide] yielded an inhibition at 12.5 µM of 43%. `CCNC(=O)Nc1ccc(-c2nc(-c3ncnn3C)c(C(N)=O)s2)cn1` [Example 157, 2-(6-{[(ethylamino)carbonyl]amino}pyridin-3-yl)-4-(1-methyl-1H-1,2,4-triazol-5-yl)-1,3-thiazole-5-carboxamide] gave an inhibition at 12.5 µM of 101%. Work on `CCCCNC(=O)c1sc(-c2ccc(NC(=O)NCC)nc2)nc1C(=O)N(C)C` [Example 158, N^5-butyl-2-(6-{[(ethylamino)carbonyl]amino}pyridin-3-yl)-N^4,N^4-dimethyl-1,3-thiazole-4,5-dicarboxamide] yielded an inhibition at 12.5 µM of 92.6%. For `CCNC(=O)Nc1ccc(-c2nc(C(=O)N(C)C)c(C(=O)NC(C)(C)C)s2)cn1` [Example 159, N^5-(tert-butyl)-2-(6-{[(ethylamino)carbonyl]amino}pyridin-3-yl)-N^4,N^4-dimethyl-1,3-thiazole-4,5-dicarboxamide], the inhibition at 12.5 µM was 95.3%. `CCNC(=O)Nc1cc(-c2nc(CC)cs2)c(-c2cccc(C(=O)N(C)C)c2)cn1` [Example 160, 3-[6-{[(ethylamino)carbonyl]amino}-4-(4-ethyl-1,3-thiazol-2-yl)pyridin-3-yl]-N,N-dimethylbenzamide] was tested, and the inhibition at 12.5 µM was 95.5%. `CCNC(=O)Nc1cc(-c2nc(CC)cs2)c(-c2cncc(C(=O)N(C)C)c2)cn1` [Example 161, 6′-{[(ethylamino)carbonyl]amino}-4′-(4-ethyl-1,3-thiazol-2-yl)-N,N-dimethyl-3,3′-bipyridine-5-carboxamide] showed an inhibition at 12.5 µM of 101%. Compound `CCCCNC(=O)c1nc(-c2cnc(NC(=O)NCC)cc2-c2nc(CC)cs2)sc1C(=O)N(C)C` [Example 162, N^4-butyl-2-[6-{[(ethylamino)carbonyl]amino}-4-(4-ethyl-1,3-thiazol-2-yl)pyridin-3-yl]-N~5~,N~5~-dimethyl-1,3-thiazole-4,5-dicarboxamide] has an inhibition at 12.5 µM of 101%. With `CCCCNC(=O)c1csc(-c2cnc(NC(=O)NCC)cc2-c2ccccc2)n1` [Example 163, N-butyl-2-(6-{[(ethylamino)carbonyl]amino}-4-phenylpyridin-3-yl)-1,3-thiazole-4-carboxamide] the inhibition at 12.5 µM was 97.8%. For `CCNC(=O)Nc1cc(-c2nc(C(C)(C)C)cs2)c(-c2cncc(C(=O)NC)c2)cn1` [Example 164, 4′-(4-tert-butyl-1,3-thiazol-2-yl)-6′-{[(ethylamino)carbonyl]amino}-N-methyl-3,3′-bipyridine-5-carboxamide], the inhibition at 12.5 µM was 88.1%.
